Results reported in patent US20240225984A9, “TOPICAL COMPOSITION FOR REGULATION OF INFLAMMATION AND SKIN REGENERATION” (Glycopep Therapeutics, S.A.S. de C.V., priority 2022, published 2024).

How the values were obtained:
[1] = Viability of HaCaT human keratinocytes (mitochondrial metabolic activity, tetrazolium salts / MTT); conditions: HaCaT cells (immortalized keratinocytes)
Protocol: (§1) We worked with HaCaT cells, an immortalized human keratinocyte cell line, which were cultured in DMEM medium supplemented (1 g/L glucose, 4 mM L-alanyl-glutamine, 10% inactivated fetal bovine serum, 50 IU/penicillin, 50 μg/ml streptomycin) at 37° C. and 5% CO2. Cells were worked between passages 3 to 7.
(§2) They were treated with 2.5 and 5% sialylated GMP, alone or combined with 0.5 and 1% panthenol for 0, 1, 2, 24 and 48 h. To define the percentage of viability of the cells with the different treatments at each of the times tested, cells not treated with either sialidinated GMP or panthenol were used as a control condition.
(§3) Once the time was up, cell viability was determined by measuring mitochondrial metabolic activity by spectrophotometric techniques and using tetrazolium salts.

[2] = test system: IL-1β; assay: IL-1β/GAPDH mRNA expression in HaCaT keratinocytes with or without DNCB; assay type: cell-based, human; conditions: without DNCB; FIG. 4
Text: To verify that the composition of the present invention regulates the expression of genes associated with inflammation, the expression of IL-1β/GAPDH and Cox-2/GAPDH mRNA was quantified. When keratinocytes are exposed to IL-1β, they increase the levels of messenger RNA of other cytokines such as MIP-2, TNF-α, IL-10 and IL-1α. In this sense, the regulation of IL-1β is beneficial during inflammatory processes in the skin. The regulation of COX-2 is beneficial during inflammatory processes and wound regeneration.
Cells were worked between passages 3 to 7.
They were seeded in 6-well plates at a density of […] and incubated for 24 h at close to 20% confluency. After three days, 75% confluences were achieved.

[3] = test system: HaCaT cells
Protocol: as §1, §2, §3

Compound | cytotoxicity at 1 % [1] | cytotoxicity at 2 h, 0.5 % [1] | expression level of IL-1β mRNA in relation to control cells [2] | cell viability [3]
CC(C)(CO)[C@@H](O)C(=O)NCCCO [panthenol, Panthenol] | 30% | 30% | – | –
glycomacropeptide [GMP] | – | – | decreased | greater than 50%
